Laboratory results taken from patent publication US7741023B2, “Method for predicting immune response to neoplastic disease based on mRNA expression profile in neoplastic cells and stimulated leukocytes” (Hitachi Chemical Co., Ltd., priority 2005, dated 2010).

System: TNF superfamily subtype 3 mRNA
Assay: effect of dietary components on HAG-induced TNF superfamily subtype 3 mRNA in whole blood
Format: cell-based, human
Details: 100 nM, pre-incubation 37° C. 1 hour, then HAG; one individual, FIG. 10
Procedure: Triplicate aliquots of 50 μL each of heparinized whole blood was incubated with 200 μg/mL HAG at 37° C. for 2 hours. Then blood samples were applied to 96-well filterplates to trap leukocytes, and cell lysates were transferred to 96-well oligo(dT)-immobilized microplates for isolation of poly(A)^+ mRNA as described above. cDNA was synthesized on the microplates and was used for real-time polymerase chain reaction (PCR) in 384-well plates by monitoring SYBR Green fluorescence (see Morrison et al., Quantification of low-copy transcripts by continuous SYBR Green I monitoring during amplification. Biotechniques 1998; 24:954-8, 960, 96). […] The Ct was determined by analytical software (SDS, ABI). The PCR conditions were carefully optimized, so that a single appropriate peak was detected on melting curve analysis without any primer dimers. To validate the assay conditions, synthetic RNA34 was spiked into the lysis buffer, and this RNA34 was also quantitated by real time PCR. […] The Ct was set equal to the PCR cycle where certain amounts of PCR products were generated, and delta Ct (ΔCt) was also calculated by subtracting the Ct values of the un-stimulated samples from those of the stimulated samples. Since Ct is a log scale, 1 ΔCt means double or one half in quantity, and a negative ΔCt indicates an increase in expression. […]

O=c1c(O)c(-c2ccc(O)c(O)c2)oc2cc(O)cc(O)c12 [quercetin]
HAG-induced TNF superfamily subtype 3 expression in blood pre-exposed to dietary component: significant (p=0.03) induction
